Source: US8741899B2, “(4-chloro-2-fluoro-N-(2-fluorophenyl)-5-[(8aR)-hexahydropyrrolo-[1,2-a]pyrazin-2(1H)-ylcarbonyl]-benzenesulfonamide, and pharmaceutically acceptable salts thereof” (AbbVie Inc., priority 2009, dated 2014)

Biological target: T1, Human Cav3.2 Channels (Homo sapiens, UniProt O95180)
T1 construct: expressed in transfected cells
Assay: Electrophysiologic (whole-cell patch-clamp) assessment of calcium channel activity in HEK293 cells stably expressing hCav3.2
Type: cell-based
Settings: −77 mV, geometric mean, read-out: Human Cav3.2 −77 mV IC50 (μM) GeoMean
Procedure: (i) In Vitro Methods—Electrophysiologic Assessment of Calcium Channel Activity:
Patch-clamp recordings were performed using HEK293 cells stably expressing hCav3.2. Cells were plated in T175 flasks and grown at 37° C. and under 5% CO2 to approximately 50% confluency. On the day of the experiment, cells were harvested with Detachin™ cell detachment solution (Genlantis, San Diego, Calif.) and maintained in serum-free culture medium supplemented with 25 mM HEPES up to several hours prior to experiment. Whole-cell patch-clamp recordings were obtained using extracellular saline consisting of (mM): 87.5 CsCl, 40 TEA-Cl, 5 CaCl2, 1 MgCl2, 10 HEPES, 10 glucose. The pH was adjusted to 7.2 with CsOH and the osmolarity was adjusted to approximately 310 mOsm with sucrose. Intracellular solution consisted of (mM): 112 CsCl, 27 CsF, 2 NaCl, 8.2 EGTA, 10 HEPES. Prior to an experiment 4 mM Mg2ATP was added and the pH was adjusted to 7.2 with CsOH with an osmolarity of approximately 290 mOsm. A two-pulse voltage protocol was utilized to assess compound inhibition. First, cells were held with an 8 s pre-pulse at −100 mV prior to a 160 ms test pulse to −30 mV. This was followed by an 8 s pre-pulse at approximately −75 mV prior to a […]. Increasing concentrations of antagonist were applied to individual cells in a multi-addition format with 5 minutes in each test concentration. For each cell, responses were normalized to dimethyl sulfoxide vehicle control to generate concentration-response curves.

T1 sequence (O95180 whole entry): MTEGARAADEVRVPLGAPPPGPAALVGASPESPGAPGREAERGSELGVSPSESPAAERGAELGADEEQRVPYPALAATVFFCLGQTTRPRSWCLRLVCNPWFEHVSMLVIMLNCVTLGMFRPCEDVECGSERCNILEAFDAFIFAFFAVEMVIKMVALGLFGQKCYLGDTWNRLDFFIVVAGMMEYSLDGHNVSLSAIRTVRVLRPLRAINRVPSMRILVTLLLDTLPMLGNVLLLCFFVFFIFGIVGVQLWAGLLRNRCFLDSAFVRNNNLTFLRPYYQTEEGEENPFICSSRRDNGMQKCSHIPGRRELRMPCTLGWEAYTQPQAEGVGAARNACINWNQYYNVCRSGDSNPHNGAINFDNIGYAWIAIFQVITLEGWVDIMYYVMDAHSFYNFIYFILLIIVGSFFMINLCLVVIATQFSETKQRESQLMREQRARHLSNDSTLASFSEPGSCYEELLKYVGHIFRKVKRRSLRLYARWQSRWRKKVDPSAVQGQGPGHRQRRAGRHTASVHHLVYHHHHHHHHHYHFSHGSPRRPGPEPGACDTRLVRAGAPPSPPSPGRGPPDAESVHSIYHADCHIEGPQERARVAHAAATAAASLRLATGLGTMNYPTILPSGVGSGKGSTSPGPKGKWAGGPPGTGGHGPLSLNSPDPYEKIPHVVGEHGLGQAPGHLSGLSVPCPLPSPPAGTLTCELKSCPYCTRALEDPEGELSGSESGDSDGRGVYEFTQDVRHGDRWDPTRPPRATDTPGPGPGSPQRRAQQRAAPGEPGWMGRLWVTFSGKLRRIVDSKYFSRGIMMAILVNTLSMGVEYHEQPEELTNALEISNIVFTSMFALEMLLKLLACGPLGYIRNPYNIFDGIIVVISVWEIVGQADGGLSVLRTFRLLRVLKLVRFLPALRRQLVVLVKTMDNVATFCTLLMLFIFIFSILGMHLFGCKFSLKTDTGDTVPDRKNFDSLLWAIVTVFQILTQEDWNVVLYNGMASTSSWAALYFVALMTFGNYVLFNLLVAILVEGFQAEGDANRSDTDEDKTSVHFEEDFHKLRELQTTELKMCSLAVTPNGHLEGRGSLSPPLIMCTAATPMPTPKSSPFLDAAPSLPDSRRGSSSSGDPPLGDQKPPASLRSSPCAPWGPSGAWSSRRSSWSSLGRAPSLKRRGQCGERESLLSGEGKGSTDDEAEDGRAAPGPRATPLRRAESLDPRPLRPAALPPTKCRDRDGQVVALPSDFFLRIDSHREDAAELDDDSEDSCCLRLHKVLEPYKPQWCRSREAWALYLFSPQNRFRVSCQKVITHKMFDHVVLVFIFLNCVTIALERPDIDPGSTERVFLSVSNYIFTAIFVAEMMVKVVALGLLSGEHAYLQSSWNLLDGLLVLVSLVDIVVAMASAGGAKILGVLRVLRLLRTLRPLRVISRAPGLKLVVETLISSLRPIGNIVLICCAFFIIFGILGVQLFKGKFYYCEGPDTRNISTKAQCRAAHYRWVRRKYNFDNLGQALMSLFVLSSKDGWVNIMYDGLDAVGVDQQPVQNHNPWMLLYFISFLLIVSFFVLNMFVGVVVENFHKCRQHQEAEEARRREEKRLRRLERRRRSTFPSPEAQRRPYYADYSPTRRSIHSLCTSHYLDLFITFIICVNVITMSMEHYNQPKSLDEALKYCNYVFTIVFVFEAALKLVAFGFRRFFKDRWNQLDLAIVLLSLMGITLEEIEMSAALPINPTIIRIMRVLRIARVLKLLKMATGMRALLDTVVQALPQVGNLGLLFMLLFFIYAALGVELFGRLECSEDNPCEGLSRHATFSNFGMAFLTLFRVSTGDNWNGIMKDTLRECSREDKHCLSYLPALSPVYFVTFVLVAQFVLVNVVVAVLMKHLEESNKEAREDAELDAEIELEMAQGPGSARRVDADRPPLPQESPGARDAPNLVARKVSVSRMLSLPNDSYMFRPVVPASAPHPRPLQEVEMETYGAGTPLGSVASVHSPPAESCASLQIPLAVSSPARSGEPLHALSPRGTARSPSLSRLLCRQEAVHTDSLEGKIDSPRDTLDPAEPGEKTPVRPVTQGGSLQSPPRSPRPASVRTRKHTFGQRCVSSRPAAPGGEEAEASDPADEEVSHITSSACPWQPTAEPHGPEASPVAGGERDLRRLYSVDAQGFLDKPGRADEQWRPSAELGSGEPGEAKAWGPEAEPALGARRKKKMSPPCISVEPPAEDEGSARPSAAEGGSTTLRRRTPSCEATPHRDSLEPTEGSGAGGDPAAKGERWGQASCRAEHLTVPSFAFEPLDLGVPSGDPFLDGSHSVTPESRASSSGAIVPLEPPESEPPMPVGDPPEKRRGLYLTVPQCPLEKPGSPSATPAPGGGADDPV

**Q.** With `O=C(c1cccc(S(=O)(=O)Nc2ccc(C(F)(F)F)cc2)c1)N1CCN2CCC[C@@H]2C1` [Example 1, 3-[(8aR)-hexahydropyrrolo[1,2-a]pyrazin-2(1H)-ylcarbonyl]-N-[4-(trifluoromethyl)phenyl]benzenesulfonamide] as the molecule, how does the IC50 read?
**A.** > 10 µM

**Q.** Which IC50 does the source give for `O=C(c1cccc(S(=O)(=O)Nc2c(F)cccc2F)c1)N1CCN2CCC[C@H]2C1` [Example 4, N-(2,6-difluorophenyl)-3-[(8aS)-hexahydropyrrolo[1,2-a]pyrazin-2(1H)-ylcarbonyl]benzenesulfonamide] here?
**A.** 7.7 µM

**Q.** `O=C(c1cccc(S(=O)(=O)Nc2ccc(F)cc2)c1)N1CCN2CCC[C@H]2C1` [Example 5, N-(4-fluorophenyl)-3-[(8aS)-hexahydropyrrolo[1,2-a]pyrazin-2(1H)-ylcarbonyl]benzenesulfonamide] was tested. Which IC50 did it give?
**A.** 1.8 µM

**Q.** `O=C(c1cccc(S(=O)(=O)Nc2cccc(C(F)(F)F)c2)c1)N1CCN2CCC[C@H]2C1` [Example 6, 3-[(8aS)-hexahydropyrrolo[1,2-a]pyrazin-2(1H)-ylcarbonyl]-N-[3-(trifluoromethyl)phenyl]benzenesulfonamide] was tested. Which IC50 did it give?
**A.** 1.9 µM

**Q.** Which IC50 does the source give for `O=C(c1cccc(S(=O)(=O)Nc2cccc(F)c2)c1)N1CCN2CCC[C@@H]2C1` [Example 7, N-(3-fluorophenyl)-3-[(8aR)-hexahydropyrrolo[1,2-a]pyrazin-2(1H)-ylcarbonyl]benzenesulfonamide] here?
**A.** 6.5 µM

**Q.** With `O=C(c1cccc(S(=O)(=O)Nc2ccc(C(F)(F)F)cc2)c1)N1CCN2CCC[C@H]2C1` [Example 8, 3-[(8aS)-hexahydropyrrolo[1,2-a]pyrazin-2(1H)-ylcarbonyl]-N-[4-(trifluoromethyl)phenyl]benzenesulfonamide] as the molecule, how does the IC50 read?
**A.** 2.1 µM

**Q.** `O=C(c1cccc(S(=O)(=O)Nc2ccccc2Cl)c1)N1CCN2CCC[C@@H]2C1` [Example 9, N-(2-chlorophenyl)-3-[(8aR)-hexahydropyrrolo[1,2-a]pyrazin-2(1H)-ylcarbonyl]benzenesulfonamide] was tested. Which IC50 did it give?
**A.** 7.3 µM

**Q.** Which IC50 does the source give for `O=C(c1cccc(S(=O)(=O)Nc2ccccc2Cl)c1)N1CCN2CCC[C@H]2C1` [Example 10, N-(2-chlorophenyl)-3-[(8aS)-hexahydropyrrolo[1,2-a]pyrazin-2(1H)-ylcarbonyl]benzenesulfonamide] here?
**A.** 1.5 µM

**Q.** Which IC50 does the source give for `O=C(c1cccc(S(=O)(=O)Nc2cccc(F)c2F)c1)N1CCN2CCC[C@H]2C1` [Example 11, N-(2,3-difluorophenyl)-3-[(8aS)-hexahydropyrrolo[1,2-a]pyrazin-2(1H)-ylcarbonyl]benzenesulfonamide] here?
**A.** 6.6 µM

**Q.** `O=C(c1cccc(S(=O)(=O)Nc2cc(F)ccc2F)c1)N1CCN2CCC[C@H]2C1` [Example 12, N-(2,5-difluorophenyl)-3-[(8aS)-hexahydropyrrolo[1,2-a]pyrazin-2(1H)-ylcarbonyl]benzenesulfonamide] was tested. Which IC50 did it give?
**A.** 4.7 µM

**Q.** `O=C(c1cccc(S(=O)(=O)Nc2cccc(F)c2F)c1)N1CCN2CCC[C@@H]2C1` [Example 14, N-(2,3-difluorophenyl)-3-[(8aR)-hexahydropyrrolo[1,2-a]pyrazin-2(1H)-ylcarbonyl]benzenesulfonamide] was tested. Which IC50 did it give?
**A.** 3.7 µM

**Q.** Which IC50 does the source give for `O=C(c1cccc(S(=O)(=O)Nc2cc(F)ccc2F)c1)N1CCN2CCC[C@@H]2C1` [Example 15, N-(2,5-difluorophenyl)-3-[(8aR)-hexahydropyrrolo[1,2-a]pyrazin-2(1H)-ylcarbonyl]benzenesulfonamide] here?
**A.** > 10 µM

**Q.** `O=C(c1cccc(S(=O)(=O)Nc2ccc(F)cc2F)c1)N1CCN2CCC[C@H]2C1` [Example 16, N-(2,4-difluorophenyl)-3-[(8aS)-hexahydropyrrolo[1,2-a]pyrazin-2(1H)-ylcarbonyl]benzenesulfonamide] was tested. Which IC50 did it give?
**A.** 6 µM

**Q.** For `O=C(c1cccc(S(=O)(=O)Nc2ccccc2F)c1)N1CCN2CCC[C@H]2C1` [Example 17, N-(2-fluorophenyl)-3-[(8aS)-hexahydropyrrolo[1,2-a]pyrazin-2(1H)-ylcarbonyl]benzenesulfonamide], which IC50 is on record?
**A.** > 10 µM

**Q.** For `O=C(c1cccc(S(=O)(=O)Nc2ccc(F)cc2F)c1)N1CCN2CCC[C@@H]2C1` [Example 18, N-(2,4-difluorophenyl)-3-[(8aR)-hexahydropyrrolo[1,2-a]pyrazin-2(1H)-ylcarbonyl]benzenesulfonamide], which IC50 is on record?
**A.** 9.3 µM

**Q.** With `O=C(c1cccc(S(=O)(=O)Nc2ccccc2C(F)(F)F)c1)N1CCN2CCC[C@H]2C1` [Example 19, 3-[(8aS)-hexahydropyrrolo[1,2-a]pyrazin-2(1H)-ylcarbonyl]-N-[2-(trifluoromethyl)phenyl]benzenesulfonamide] as the molecule, how does the IC50 read?
**A.** 2.4 µM

**Q.** `O=C(c1cccc(S(=O)(=O)Nc2cccc(Cl)c2)c1)N1CCN2CCC[C@H]2C1` [Example 21, N-(3-chlorophenyl)-3-[(8aS)-hexahydropyrrolo[1,2-a]pyrazin-2(1H)-ylcarbonyl]benzenesulfonamide] was tested. Which IC50 did it give?
**A.** 5.9 µM

**Q.** For `O=C(c1cccc(S(=O)(=O)N2CCN(C(c3ccc(F)cc3)c3ccc(F)cc3)CC2)c1)N1CCN2CCC[C@@H]2C1` [Example 22, (8aR)-2-[3-({4-[bis(4-fluorophenyl)methyl]piperazin-1-yl}sulfonyl)benzoyl]octahydropyrrolo[1,2-a]pyrazine], which IC50 is on record?
**A.** 1.4 µM

**Q.** `O=C(c1cccc(S(=O)(=O)N2CCN(C(c3ccc(F)cc3)c3ccc(F)cc3)CC2)c1)N1CCN2CCC[C@H]2C1` [Example 23, (8aS)-2-[3-({4-[bis(4-fluorophenyl)methyl]piperazin-1-yl}sulfonyl)benzoyl]octahydropyrrolo[1,2-a]pyrazine] was tested. Which IC50 did it give?
**A.** 2.5 µM

**Q.** With `O=C(c1cccc(S(=O)(=O)N2CCN(C(c3ccccc3)c3ccccc3)CC2)c1)N1CCN2CCC[C@@H]2C1` [Example 24, (8aR)-2-{3-[(4-benzhydrylpiperazin-1-yl)sulfonyl]benzoyl}octahydropyrrolo[1,2-a]pyrazine] as the molecule, how does the IC50 read?
**A.** 1 µM

**Q.** `O=C(c1cccc(S(=O)(=O)Nc2cccc(Cl)c2)c1)N1CCN2CCC[C@@H]2C1` [Example 25, N-(3-chlorophenyl)-3-[(8aR)-hexahydropyrrolo[1,2-a]pyrazin-2(1H)-ylcarbonyl]benzenesulfonamide] was tested. Which IC50 did it give?
**A.** 8.9 µM

**Q.** `O=C(c1cccc(S(=O)(=O)NCC(c2ccccc2)c2ccccc2)c1)N1CCN2CCC[C@@H]2C1` [Example 26, N-(2,2-diphenylethyl)-3-[(8aR)-hexahydropyrrolo[1,2-a]pyrazin-2(1H)-ylcarbonyl]benzenesulfonamide] was tested. Which IC50 did it give?
**A.** 1.5 µM

**Q.** Which IC50 does the source give for `O=C(c1cccc(S(=O)(=O)Nc2ccccc2C(F)(F)F)c1)N1CCN2CCC[C@@H]2C1` [Example 27, 3-[(8aR)-hexahydropyrrolo[1,2-a]pyrazin-2(1H)-ylcarbonyl]-N-[2-(trifluoromethyl)phenyl]benzenesulfonamide] here?
**A.** > 10 µM

**Q.** For `O=C(c1cccc(S(=O)(=O)N2CCN(C(c3ccccc3)c3ccccc3)CC2)c1)N1CCN2CCC[C@H]2C1` [Example 28, (8aS)-2-{3-[(4-benzhydrylpiperazin-1-yl)sulfonyl]benzoyl}octahydropyrrolo[1,2-a]pyrazine], which IC50 is on record?
**A.** 1.9 µM

**Q.** `O=C(c1cccc(S(=O)(=O)NCCC(c2ccccc2)c2ccccc2)c1)N1CCN2CCC[C@@H]2C1` [Example 29, N-(3,3-diphenylpropyl)-3-[(8aR)-hexahydropyrrolo[1,2-a]pyrazin-2(1H)-ylcarbonyl]benzenesulfonamide] was tested. Which IC50 did it give?
**A.** 2.1 µM

**Q.** Which IC50 does the source give for `O=C(c1cccc(S(=O)(=O)NCCC(c2ccccc2)c2ccccc2)c1)N1CCN2CCC[C@H]2C1` [Example 30, N-(3,3-diphenylpropyl)-3-[(8aS)-hexahydropyrrolo[1,2-a]pyrazin-2(1H)-ylcarbonyl]benzenesulfonamide] here?
**A.** 1.8 µM

**Q.** With `O=C(c1cccc(S(=O)(=O)NCC(c2ccccc2)c2ccccc2)c1)N1CCN2CCC[C@H]2C1` [Example 31, N-(2,2-diphenylethyl)-3-[(8aS)-hexahydropyrrolo[1,2-a]pyrazin-2(1H)-ylcarbonyl]benzenesulfonamide] as the molecule, how does the IC50 read?
**A.** 3.3 µM

**Q.** How did the IC50 turn out when `O=C(c1cc(S(=O)(=O)Nc2ccc(C(F)(F)F)cc2)ccc1Cl)N1CCN2CCC[C@@H]2C1` [Example 32, 4-chloro-3-[(8aR)-hexahydropyrrolo[1,2-a]pyrazin-2(1H)-ylcarbonyl]-N-[4-(trifluoromethyl)phenyl]benzenesulfonamide] was run?
**A.** 8.4 µM

**Q.** Which IC50 does the source give for `O=C(c1cccc(S(=O)(=O)NCCc2ccc(F)cc2)c1)N1CCN2CCC[C@H]2C1` [Example 33, N-[2-(4-fluorophenyl)ethyl]-3-[(8aS)-hexahydropyrrolo[1,2-a]pyrazin-2(1H)-ylcarbonyl]benzenesulfonamide] here?
**A.** 5.7 µM

**Q.** Which IC50 does the source give for `O=C(c1ccc(Cl)c(S(=O)(=O)Nc2ccc(C(F)(F)F)cc2)c1)N1CCN2CCC[C@@H]2C1` [Example 34, 2-chloro-5-[(8aR)-hexahydropyrrolo[1,2-a]pyrazin-2(1H)-ylcarbonyl]-N-[4-(trifluoromethyl)phenyl]benzenesulfonamide] here?
**A.** 6.2 µM

**Q.** How did the IC50 turn out when `O=C(c1cccc(S(=O)(=O)N2CCN(c3ccc(F)cc3)CC2)c1)N1CCN2CCC[C@H]2C1` [Example 35, (8aS)-2-(3-{[4-(4-fluorophenyl)piperazin-1-yl]sulfonyl}benzoyl)octahydropyrrolo[1,2-a]pyrazine] was run?
**A.** 4.8 µM

**Q.** With `O=C(c1cccc(S(=O)(=O)Nc2ccccc2-c2ccccc2)c1)N1CCN2CCC[C@H]2C1` [Example 36, N-1,1′-biphenyl-2-yl-3-[(8aS)-hexahydropyrrolo[1,2-a]pyrazin-2(1H)-ylcarbonyl]benzenesulfonamide] as the molecule, how does the IC50 read?
**A.** 4.7 µM
